Entries after “also recorded” stand apart in the source; their conditions may differ. Read-outs that look alike come from different tables or passages of the source.
What was measured:
[1] = cited from earlier work
[2] = tested on: GBM patients; experiment: Adverse events (CTCAE version 4.0) in the same clinical study; format: in vivo, human; conditions: 46 patients
Description: Baseline evaluation including neurologic assessment, complete blood analysis, and tumor imaging with contrast-enhanced MRI was performed pre-operatively and immediately postoperatively, usually within 48 hours. KPS was graded by the treating provider. Repeat assessment by physical examination and imaging was performed at the completion of initial chemoradiotherapy, just prior to the first vaccine administration. Final eligibility to receive vaccine was determined at this time point. After initiation of vaccine therapy, patients were evaluated every 4 weeks by clinical examination, and every 8 weeks by radiographic imaging with contrast-enhanced MRI. Tumor progression was assessed according to the modified RANO criteria (Table 1). Adverse events were assessed and graded according to the National Cancer Institute Common Terminology Criteria for Adverse Event (CTCAE), version 4.0.

[3] = tested on: GBM; conditions: cited from earlier work; for Median PFS / Median Survival: Rad/TMZ plus Avastin arm
[4] = tested on: GBM; experiment: Published GBM trials used for comparison (Tables 13 and 14, discussion); format: in vivo, human; conditions: Rad/TMZ plus Avastin arm
[5] = AVAglio, Chinot et al, NEJM 2014
[6] = RTOG 0825 Gilbert, et al. NEJM 2014
[7] = RTOG 0825 Trial, Gilbert, NEJM 2013, N = 637

Compound	concentrations in the central nervous system relative to plasma concentrations ([1]; following oral administration)	blood-brain barrier penetration ([1]; in vivo)	bioavailability ([1]; taken orally)	Any Adverse Event: TWZ-related event [2]	Grade 3-4 Event: TWZ-related event [2]	Median PFS [3, 5] [months]	Median Survival [3, 5] [months]	Median PFS [3, 6] [months]	Median Survival [3, 6] [months]	Median Survival, Methylated [3, 7] [months]	Median Survival, Unmethylated [3, 7] [months]	Median overall survival, methylated patients ([3]; bevacizumab trials) [months]	Median overall survival, unmethylated patients ([3]; bevacizumab trials) [months]	Benefit of adding bevacizumab to radiation and temozolomide ([3]; newly diagnosed GBM, randomized phase 3 trials vs placebo)	Estimated Post-Progression Survival [4, 5] [months]	Estimated Post-Progression Survival [4, 6] [months]
Cn1nnc2c(C(N)=O)ncn2c1=O [temozolomide]	approximately 30%	able to cross the blood-brain barrier	greater than 95%	42 (91.3%) no. of patients (%)	21 (45.6%) no. of patients (%)	–	–	–	–	–	–	–	–	–	–	–
bevacizumab [Avastin]	–	–	–	–	–	10.6	16.8	10.7	16.1	23.2	14.3	25.0	14.6	no significant benefit; also recorded: no improvement in overall survival compared to placebo	6.2	5.4

— US20180318347A1, “METHODS FOR TREATING CANCER” (Agenus Inc., priority 2015, published 2018)
